Source: ChEMBL document CHEMBL4011583, “Enhancing activity and selectivity in a series of pyrrol-1-yl-1-hydroxypyrazole-based aldose reductase inhibitors: The case of trifluoroacetylation” (Eur J Med Chem, 2017)
Blank lines part the entries; values can stand above or below the compound they belong to.

Key:
Rattus norvegicus [1] = organism: Rattus norvegicus; experiment: Selectivity index, ratio of IC50 for Wistar rat kidney ALR1 to IC50 for Wistar rat lens ALR2
[2] = Inhibition of Wistar rat lens ALR2 assessed as reduction in NADPH oxidation using D,L-glyceraldehyde as substrate by UV-visible spectrophotometric method
[3] = biological target: Aldo-keto reductase family 1 member A1 (Rattus norvegicus, UniProt P51635); experiment: Inhibition of Wistar rat kidney ALR1 assessed as reduction in NADPH oxidation using D-glycuronate as substrate by UV-visible spectrophotometric method
[4] = Mixed-type inhibition of recombinant human ALR2 expressed in Escherichia coli BL21 (DE3) assessed as enzyme-inhibitor complex using varying levels of glutathionyl-4-hydroxytrans-2-nonenal substrate by Hanes-Woolf plot analysis
Rattus norvegicus [5] = organism: Rattus norvegicus; experiment: Inhibition of ALR2 in Wistar rat lens assessed as reduction in glucose induced-sorbitol accumulation by measuring sorbitol level at 2 uM pretreated for 30 mins followed by glucose challenge measured after 3 hrs by resazurin dye based fluorescence assay (reference value: 1026.51 +/- 157.33)
Rattus norvegicus [6] = organism: Rattus norvegicus; experiment: Inhibition of ALR2 in Wistar rat lens assessed as reduction in glucose induced-sorbitol accumulation by measuring sorbitol level at 50 uM pretreated for 30 mins followed by glucose challenge measured after 3 hrs by resazurin dye based fluorescence assay relative to control; design: scale not given: the % may be the effect or the level left
[7] = Mixed-type inhibition of recombinant human ALR2 expressed in Escherichia coli BL21 (DE3) assessed as enzyme-substrate-inhibitor complex using varying levels of L-idose substrate by Hanes-Woolf plot analysis
[8] = Mixed-type inhibition of recombinant human ALR2 expressed in Escherichia coli BL21 (DE3) assessed as enzyme-inhibitor complex using varying levels of 4-hydroxy-trans-2-nonenal substrate by Hanes-Woolf plot analysis
[9] = Mixed-type inhibition of recombinant human ALR2 expressed in Escherichia coli BL21 (DE3) assessed as enzyme-inhibitor complex using varying levels of L-idose substrate by Hanes-Woolf plot analysis
[10] = Mixed-type inhibition of recombinant human ALR2 expressed in Escherichia coli BL21 (DE3) assessed as enzyme-inhibitor complex using varying levels of D,L-glyceraldehyde substrate by Hanes-Woolf plot analysis
[11] = Mixed-type inhibition of recombinant human ALR2 expressed in Escherichia coli BL21 (DE3) assessed as enzyme-substrate-inhibitor complex using varying levels of 4-hydroxy-trans-2-nonenal substrate by Hanes-Woolf plot analysis
[12] = Mixed-type inhibition of recombinant human ALR2 expressed in Escherichia coli BL21 (DE3) assessed as enzyme-substrate-inhibitor complex using varying levels of glutathionyl-4-hydroxytrans-2-nonenal substrate by Hanes-Woolf plot analysis
Rattus norvegicus [13] = organism: Rattus norvegicus; experiment: Inhibition of ALR2 in Wistar rat lens assessed as reduction in glucose induced-sorbitol accumulation by measuring sorbitol level at 10 uM pretreated for 30 mins followed by glucose challenge measured after 3 hrs by resazurin dye based fluorescence assay (reference value: 1026.51 +/- 157.33)
Homo sapiens = organism: Homo sapiens; experiment: Ratio of Ki for recombinant human ALR2 expressed in Escherichia coli BL21 (DE3) assessed as enzyme-substrate-inhibitor complex using varying levels of glutathionyl-4-hydroxytrans-2-nonenal substrate to Ki for human ALR2 expressed in Escherichia coli BL21 (DE3) assessed as enzyme-inhibitor complex using varying levels of glutathionyl-4-hydroxytrans-2-nonenal substrate
[14] = Mixed-type inhibition of recombinant human ALR2 expressed in Escherichia coli BL21 (DE3) assessed as enzyme-substrate-inhibitor complex using varying levels of D,L-glyceraldehyde substrate by Hanes-Woolf plot analysis
[15] = Inhibition of Fischer-344 rat lens ALR2

Sequence of Aldo-keto reductase family 1 member A1 (P51635 whole entry, looked up): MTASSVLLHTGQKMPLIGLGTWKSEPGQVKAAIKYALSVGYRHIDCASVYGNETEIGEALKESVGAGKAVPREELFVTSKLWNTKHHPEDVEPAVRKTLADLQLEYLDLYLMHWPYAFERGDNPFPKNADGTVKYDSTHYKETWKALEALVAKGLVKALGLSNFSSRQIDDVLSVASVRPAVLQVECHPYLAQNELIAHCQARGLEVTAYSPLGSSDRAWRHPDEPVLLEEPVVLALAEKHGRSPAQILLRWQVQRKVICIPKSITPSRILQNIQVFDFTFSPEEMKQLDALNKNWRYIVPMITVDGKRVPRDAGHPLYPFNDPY

Compound: O=C(c1cccc(F)c1)c1cc(C(=O)C(F)(F)F)n(-c2cnn(O)c2)c1
- Ratio IC50 (Rattus norvegicus [1]): 339
- IC50 [2]: 0.14 µM
- pIC50 [2]: 6.85
- IC50 [3]: 42.3 µM

Compound: O=C1NC(=O)[C@@]2(CCOc3ccc(F)cc32)N1 [SORBINIL]
- IC50 [15]: 0.25 µM

Compound: CS(=O)(=O)c1ccc(C(=O)c2cc(C(=O)C(F)(F)F)n(-c3cnn(O)c3)c2)cc1
- Ratio IC50 (Rattus norvegicus [1]): 775
- IC50 [2]: 0.094 µM
- pIC50 [2]: 7.03
- IC50 [3]: 72.8 µM

Compound: O=C(c1ccccc1)c1cc(C(=O)C(F)(F)F)n(-c2cnn(O)c2)c1
- Ratio IC50 (Rattus norvegicus [1]): > 413
- IC50 [2]: 0.242 µM
- pIC50 [2]: 6.62
- IC50 [3]: > 100 µM

The next lines start with results.

- IC50 [2]: 0.064 µM
- pIC50 [2]: 7.13
- IC50 [3]: 23.7 µM
Compound: COc1cccc(C(=O)c2cc(C(=O)C(F)(F)F)n(-c3cnn(O)c3)c2)c1
- Ratio IC50 (Rattus norvegicus [1]): 370

- Activity (Rattus norvegicus [5]): 838 nmol/g
- Activity (Rattus norvegicus [6]): 55%
- Activity (Rattus norvegicus [13]): 710 nmol/g
- Ratio Ki (Homo sapiens): 0.75
- IC50 [2]: 0.078 µM
- pIC50 [2]: 7.11
- IC50 [3]: 67.1 µM
Compound: O=C(c1ccc(F)cc1)c1cc(C(=O)C(F)(F)F)n(-c2cnn(O)c2)c1
- Ki [4]: 1.86 µM
- Ki [7]: 0.7 µM
- Ki [8]: 5.84 µM
- Ki [9]: 8.61 µM
- Ki [10]: 5.27 µM
- Ki [11]: 2.19 µM
- Ki [12]: 2.46 µM
- Ratio IC50 (Rattus norvegicus [1]): 858
- Ki [14]: 0.82 µM

- IC50 [2]: 0.074 µM
- pIC50 [2]: 7.19
- IC50 [3]: 14.1 µM
Compound: O=C(c1ccc(-c2ccccc2)cc1)c1cc(C(=O)C(F)(F)F)n(-c2cnn(O)c2)c1
- Ratio IC50 (Rattus norvegicus [1]): 190

- IC50 [2]: 0.073 µM
- pIC50 [2]: 7.14
- IC50 [3]: 34.2 µM
Compound: COc1ccc(C(=O)c2cc(C(=O)C(F)(F)F)n(-c3cnn(O)c3)c2)cc1
- Ratio IC50 (Rattus norvegicus [1]): 468

- Activity (Rattus norvegicus [5]): 889 nmol/g
- Activity (Rattus norvegicus [6]): 55%
- Activity (Rattus norvegicus [13]): 613 nmol/g
- Ratio Ki (Homo sapiens): 0.75
- IC50 [2]: 0.043 µM
- pIC50 [2]: 7.37
- IC50 [3]: 27.9 µM
Compound: CSc1ccc(C(=O)c2cc(C(=O)C(F)(F)F)n(-c3cnn(O)c3)c2)cc1
- Ki [4]: 0.69 µM
- Ki [7]: 0.27 µM
- Ki [8]: 2.83 µM
- Ki [9]: 4.55 µM
- Ki [10]: 2.01 µM
- Ki [11]: 0.39 µM
- Ki [12]: 0.93 µM
- Ratio IC50 (Rattus norvegicus [1]): 650
- Ki [14]: 0.21 µM
